Molecular target: Adenosine receptor A2a (Rattus norvegicus, UniProt P30543)
Assay: Binding affinity was determined in radioligand binding assay at rat striatal Adenosine A2A receptor vs [3H]-CGS- 21680

Adenosine receptor A2a, sequence (P30543 whole entry): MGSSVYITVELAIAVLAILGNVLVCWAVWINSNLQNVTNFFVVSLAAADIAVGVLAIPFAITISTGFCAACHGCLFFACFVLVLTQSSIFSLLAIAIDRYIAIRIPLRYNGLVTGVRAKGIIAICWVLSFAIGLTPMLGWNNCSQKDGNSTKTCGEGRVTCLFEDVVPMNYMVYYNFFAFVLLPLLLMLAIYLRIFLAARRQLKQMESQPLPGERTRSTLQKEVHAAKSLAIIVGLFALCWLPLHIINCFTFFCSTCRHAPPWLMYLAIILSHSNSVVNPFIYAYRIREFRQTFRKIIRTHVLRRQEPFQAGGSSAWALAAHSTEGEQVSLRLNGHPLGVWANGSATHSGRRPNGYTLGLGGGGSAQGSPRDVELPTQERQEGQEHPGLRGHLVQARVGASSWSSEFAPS

- Ki: > 100 nM
Structure (SMILES): CCOC(=O)C1C(C)=NC(c2ccccc2)=C(C(=O)OCc2ccccc2)C1C#Cc1ccccc1 (stereo unspecified) [CAS_393594]

Source: BindingDB's records for doi:10.1021/jm980094b (National Institute of Diabetes, 1998)
